Consider 41 compounds from patent publication US20030187007A1, “Inhibitors of protein kinase for the treatment of disease” (priority 2001, published 2003).

Structures can show the parent of a compound that is named as a salt.

The target in test [1] is CDK2 complexed with cyclin A (Homo sapiens, UniProt P24941). Nature of the test: Cyclin dependent kinase activity assay, phosphorylation of synthetic peptide PKTPKKAKKLRRR
The format is biochemical. As to conditions: 0.1 mM ATP, read-out: CDK 2 Activity*. Here is the method:
(§1) The assay of cyclin dependent kinase activity was determined by monitoring the phosphorylation of a synthetic peptide, PKTPKKAKKLRRR. The assay mixture contained 0.1 mM cold ATP, ^33P-γ-ATP (2000-4000 cpm/μL), 0.1 mM peptide, 1 mM DTT, and 10 mM MgCl2 in 100 mM HEPES buffer pH 7.4. The assay mixture, along with inhibitor and CDK enzyme (0.3-0.4 U/mL; either CDK5 complexed with p25, CDK2 complexed with complexed with cyclin A), was mixed together in a microtiter plate in a final volume of 40 μL, sealed and incubated for 2 hours at 30° C. Following incubation, a 15 μL aliquot was added to a Whatman P81 filtration plate containing 100 μL 0.5% phosphoric acid. This mixture was allowed to stand for 5 minutes prior to filtration on a vacuum manifold. The filter plate was washed with 5 successive additions of 300 μL 0.5% phosphoric acid. The filtration plate was air dried for 10 minutes before sealing the bottom. After addition of scintillation fluid to the sealed plate, phosphorylated peptide was quantified in a scintillation counter.

Test [2] deals with CDK5 complexed with p25 (Homo sapiens, UniProt Q00535). The description is as above. In kind it is biochemical. As to conditions: CDK5 complexed with p25, 0.1 mM ATP; read-out: CDK 5 Activity*. On the procedure: as §1
CDK5 complexed with p25, sequence (Q00535 whole entry): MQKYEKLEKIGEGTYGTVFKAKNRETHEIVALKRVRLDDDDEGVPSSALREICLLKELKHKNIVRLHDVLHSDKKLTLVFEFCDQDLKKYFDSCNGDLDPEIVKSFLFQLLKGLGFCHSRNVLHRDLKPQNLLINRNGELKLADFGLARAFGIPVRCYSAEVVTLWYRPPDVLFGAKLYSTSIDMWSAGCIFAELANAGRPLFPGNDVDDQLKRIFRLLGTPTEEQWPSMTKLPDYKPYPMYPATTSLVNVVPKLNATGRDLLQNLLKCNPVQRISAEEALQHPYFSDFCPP
CDK5 complexed with p25, sequence (Q15078 99-307 partner limits assumed): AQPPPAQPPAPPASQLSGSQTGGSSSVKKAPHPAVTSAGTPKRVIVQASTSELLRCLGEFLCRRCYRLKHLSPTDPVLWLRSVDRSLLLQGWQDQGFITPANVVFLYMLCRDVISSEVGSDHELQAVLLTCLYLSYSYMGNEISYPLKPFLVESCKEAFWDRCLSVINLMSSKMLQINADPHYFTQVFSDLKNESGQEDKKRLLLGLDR

As for `NC(=S)N/N=C/c1cc(Br)ccc1O` [Example 2, 5-Bromosalicylaldehyde thiosemicarbazone], the IC50 in test [1] fell in the range of 2 to 5 µM; in test [2], 0.5 to 2 µM.
Take `NC(=O)N/N=C/c1cc(Br)ccc1O` [Example 3, 5-Bromosalicylaldehyde semicarbazone hydrochloride]: the results for the IC50 in test [1] and in test [2] were 2 to 5 µM and 0.5 to 2 µM, respectively.
On the same counts, the results for `NC(=S)N/N=C/c1cc(-c2ccccc2)ccc1O` [Example 4, 5-Phenylsalicylaldehyde thiosemicarbazone] are 0.5 to 2 µM and less than 0.5 µM.
Turning to `NC(=O)N/N=C/c1cc(-c2ccccc2)ccc1O` [Example 5, 5-Phenylsalicylaldehyde semicarbazone hydrochloride], the IC50 in test [1] was 0.5 to 2 µM; in test [2] it was less than 0.5 µM.
As for `COc1cccc(-c2ccc(O)c(/C=N/NC(N)=S)c2)c1` [Example 6, 5-(3-Methoxyphenyl)salicylaldehyde thiosemicarbazone], the IC50 in test [1] and in test [2] was 2 to 5 µM each time.
On to `N#Cc1cccc(-c2ccc(O)c(/C=N/NC(N)=S)c2)c1` [Example 7, 5-(3-Cyanophenyl)salicylaldehyde thiosemicarbazone], for which the IC50 was greater than 5 µM in test [1] and 2 to 5 µM in test [2].
For `NC(=S)N/N=C/c1cc(-c2cccc(CO)c2)ccc1O` [Example 8, 5-(3-Hydroxymethylphenyl)salicylaldehyde thiosemicarbazone], the IC50 in test [1] and in test [2] was greater than 5 µM each time.
For the compound `NC(=O)N/N=C/c1cc(-c2cccc(CO)c2)ccc1O` [Example 9, 5-(3-Hydroxymethylphenyl)salicylaldehyde semicarbazone hydrochloride], the IC50 in test [1] is 2 to 5 µM; in test [2] it was 0.5 to 2 µM.
As for `NC(=S)N/N=C/c1cc(-c2ccc(CO)cc2)ccc1O` [Example 10, 5-(4-Hydroxymethylphenyl)salicylaldehyde thiosemicarbazone], the IC50 in test [1] and in test [2] was greater than 5 µM each time.
On to `NC(=S)N/N=C/c1cc(-c2ccc([N+](=O)[O-])cc2)ccc1O` [Example 11, 5-(4-Nitrophenyl)salicylaldehyde thiosemicarbazone], for which the IC50 in test [1] was greater than 5 µM; in test [2], 2 to 5 µM.
Turning to `COC(=O)c1cccc(-c2ccc(O)c(/C=N/NC(N)=S)c2)c1` [Example 12, 5-(3-Methoxycarbonylphenyl)salicylaldehyde thiosemicarbazone], the IC50 is greater than 5 µM in test [1] and 0.5 to 2 µM in test [2].
Regarding `COC(=O)c1cccc(-c2ccc(O)c(/C=N/NC(N)=O)c2)c1` [Example 13, 5-(3-Methoxycarbonylphenyl)salicylaldehyde semicarbazone hydrochloride], the IC50 in test [1] was 2 to 5 µM; in test [2], greater than 5 µM.
In the case of `COc1ccc(-c2ccc(O)c(/C=N/NC(N)=S)c2)cc1F` [Example 14, 5-(3-Fluoro-4-methoxyphenyl)salicylaldehyde thiosemicarbazone], the IC50 in test [1] fell in the range of 2 to 5 µM; in test [2] it was 0.5 to 2 µM.
Turning to `NC(=S)N/N=C/c1cc(-c2cccc(F)c2)ccc1O` [Example 15, 5-(3-Fluorophenyl)salicylaldehyde thiosemicarbazone], the IC50 in test [1] and in test [2] was 0.5 to 2 µM throughout.
With `NC(=S)N/N=C/c1cc(-c2ccc(F)cc2)ccc1O` [Example 16, 5-(4-Fluorophenyl)salicylaldehyde thiosemicarbazone], the IC50 in test [1] was in the range of 2 to 5 µM; in test [2], 0.5 to 2 µM.
As for `NC(=S)N/N=C/c1cc(-c2cccc(C(=O)O)c2)ccc1O` [Example 17, 5-(3-Carboxyphenyl)salicylaldehyde thiosemicarbazone], the values for the IC50 in test [1] and in test [2] were 0.5 to 2 µM and 2 to 5 µM, respectively.
For `NC(=O)N/N=C/c1cc(-c2cccc(C(=O)O)c2)ccc1O` [Example 18, 5-(3-Carboxyphenyl)salicylaldehyde semicarbazone hydrochloride], the IC50 in test [1] is 0.5 to 2 µM; in test [2], less than 0.5 µM.
On the same counts, the results for `NC(=S)N/N=C/c1cc(-c2ccc(C(=O)O)cc2)ccc1O` [Example 19, 5-(4-Carboxyphenyl)salicylaldehyde thiosemicarbazone] are greater than 5 µM and less than 0.5 µM.
For the compound `NC(=S)N/N=C/c1cc(-c2cccc(O)c2)ccc1O` [Example 20, 5-(3-Hydroxyphenyl)salicylaldehyde thiosemicarbazone], the values for the IC50 in test [1] and in test [2] were 0.5 to 2 µM and less than 0.5 µM, respectively.
For the compound `NC(=S)N/N=C/c1cc(-c2ccc(O)cc2)ccc1O` [Example 21, 5-(4-Hydroxyphenyl)salicylaldehyde thiosemicarbazone], the IC50 in test [1] and in test [2] was less than 0.5 µM in each case.
For the compound `NC(=S)N/N=C/c1cc(-c2ccc(O)cc2O)ccc1O` [Example 27, 5-(2,4-Dihydroxyphenyl)salicylaldehyde thiosemicarbazone], the IC50 in test [1] and in test [2] was less than 0.5 µM in each case.
As for `NC(=S)N/N=C/c1cc(-c2ccc(O)cc2)c(O)cc1O` [Example 28, 4-Hydroxy-5-(4-hydroxyphenyl)salicylaldehyde thiosemicarbazone], the IC50 fell in the range of 0.5 to 2 µM in test [1] and 2 to 5 µM in test [2].
Regarding `NC(=O)N/N=C/c1cc(-c2ccc(O)cc2)c(O)cc1O` [Example 29, 4-Hydroxy-5-(4-hydroxyphenyl)salicylaldehyde semicarbazone hydrochloride], the IC50 in test [1] is 0.5 to 2 µM; in test [2] it was greater than 5 µM.
On to `NC(=S)N/N=C/c1cc(-c2ccncc2)ccc1O` [Example 30, 5-(4-Pyridyl)salicylaldehyde thiosemicarbazone], for which the figures for the IC50 in test [1] and in test [2] were 2 to 5 µM and less than 0.5 µM, respectively.
Turning to `NC(=S)N/N=C/c1cc(-c2cccnc2)ccc1O` [Example 31, 5-(3-Pyridyl)salicylaldehyde thiosemicarbazone], the results for the IC50 in test [1] and in test [2] were 0.5 to 2 µM and less than 0.5 µM, respectively.
On to `NC(=S)N/N=C/c1cc(-c2cncnc2)ccc1O` [Example 32, 5-(5-Pyrimidyl)salicylaldehyde thiosemicarbazone], for which the IC50 in test [1] and in test [2] was 2 to 5 µM throughout.
`NC(=S)N/N=C/c1cc(-c2cccs2)ccc1O` [Example 33, 5-(2-Thienyl)salicylaldehyde thiosemicarbazone]: the IC50 was less than 0.5 µM in test [1] and 0.5 to 2 µM in test [2].
Consider `NC(=S)N/N=C/c1cc(-c2ccsc2)ccc1O` [Example 34, 5-(3-Thienyl)salicylaldehyde thiosemicarbazone], for which the IC50 in test [1] is less than 0.5 µM; in test [2], 0.5 to 2 µM.
`NC(=S)N/N=C/c1cc(-c2ccc(Cl)s2)ccc1O` [Example 35, 5-[2-(5-Chloro-thienyl)]salicylaldehyde thiosemicarbazone]: the IC50 in test [1] was 0.5 to 2 µM; in test [2], greater than 5 µM.
On to `COC(=O)/C=C/c1ccc(O)c(/C=N/NC(N)=S)c1` [Example 37, Methyl (3-formyl-4-hydroxy)cinnamate, thiosemicarbazone], for which the results for the IC50 in test [1] and in test [2] were greater than 5 µM and 0.5 to 2 µM, respectively.
On the same counts, the results for `NC(=S)N/N=C/c1cc(/C=C/C(=O)O)ccc1O` [Example 38, 3-Formyl-4-hydroxycinnamic acid, thiosemicarbazone] are less than 0.5 µM and less than 0.5 µM.
Regarding `NC(=S)N/N=C/c1cc(CCC(=O)O)ccc1O` [Example 40, 3-(3-Formyl-4-hydroxyphenyl)propionic acid, thiosemicarbazone], the IC50 in test [1] and in test [2] was less than 0.5 µM in each case.
With `NC(=O)N/N=C/c1c(O)ccc2ccccc12` [Example 41, 2-[(2-Hydroxy-1-naphthyl)methylidene]hydrazine-1-carbamide hydrochloride], the IC50 in test [1] and in test [2] was less than 0.5 µM in each case.
Turning to `NC(=S)N/N=C/c1c(O)ccc2ccccc12` [Example 42, 2-[(2-Hydroxy-1-naphthyl)methylidene]hydrazine-1-carbothioamide], the IC50 in test [1] and in test [2] was less than 0.5 µM each time.
As to `NC(=S)N/N=C/c1cc2ccc(O)cc2cc1O` [Example 43], the IC50 in test [1] and in test [2] was less than 0.5 µM throughout.
In the case of `Nc1nccc(-c2c(O)ccc3ccccc23)n1` [Example 46, 2-Amino-4-[1-(2-hydroxynaphthyl)]pyrimidine], the IC50 in test [1] is greater than 5 µM; in test [2], 2 to 5 µM.
On the same counts, the results for `Cc1cc(-c2cc(-c3ccc(O)cc3)ccc2O)nc(N)n1` [Example 47, 3-(2-Amino-6-methyl-pyrimidin-4-yl)-biphenyl-4,4′-diol] are less than 0.5 µM and less than 0.5 µM.
Take `Cc1cc(-c2cc(-c3ccnc(N)n3)ccc2O)nc(N)n1` [Example 72]: in test [1], the IC50 is less than 0.5 µM.
On to `Nc1nccc(-c2ccc(O)c(-c3cc(Cl)nc(N)n3)c2)n1` [Example 73, 2-(2-Amino-4-chloro-pyrimidin-6-yl)-4-(2-aminopyrimidin-4-yl)-phenol], for which the IC50 in test [1] was less than 0.5 µM.
In the case of `Nc1cc(-c2cc(-c3ccnc(N)n3)ccc2O)nc(N)n1` [Example 74, 2-(2,4-Diamino-pyrimidin-6-yl)-4-(2-aminopyrimidin-4-yl)-phenol], the IC50 in test [1] is less than 0.5 µM.
In the case of `Nc1nc(-c2cc(-c3ccc(O)cc3)ccc2O)cc(N2CCCC2CO)n1` (stereo not drawn) [Example 79, 3-[2-Amino-6-(2R-hydroxymethyl-pyrrolidin-1-yl)-pyrimidin-4-yl]-biphenyl-4.4′-diol], the IC50 in test [1] is less than 0.5 µM.
